According to patent US10004701B2, “Methods and compositions for treating infection” (UNIVERSITY OF ROCHESTER, priority 2012, dated 2018):
Where a name gives a salt, the structure may show the parent alone. Read-outs that look alike come from different tables or passages of the source.

Experiments:
Assay in all cases: AK assay 384-well format, Prestwick library screening
[1] = system: E. faecium; format: cell-based, Enterococcus faecium; details: Enterococcus faecium, 3 h, 50 μM final drug concentration
[2] = system: E. coli; format: cell-based, Escherichia coli; details: Escherichia coli, 3 h, 50 μM final drug concentration
[3] = system: S. aureus strain USA300-0114; format: cell-based, Staphylococcus aureus; details: Staphylococcus aureus, USA300, 3 h, 50 μM final drug concentration
[4] = system: K. pneumoniae; format: cell-based, Klebsiella pneumoniae; details: Klebsiella pneumoniae, 3 h, 50 μM final drug concentration
[5] = system: A. baumannii strain 98-37-09; format: cell-based, Acinetobacter baumannii; details: Acinetobacter baumannii, 983709, 3 h, 50 μM final drug concentration
[6] = system: P. aeruginosa; format: cell-based, Pseudomonas aeruginosa; details: Pseudomonas aeruginosa, 3 h, 50 μM final drug concentration
[7] = system: E. cloacae; format: cell-based, Enterobacter cloacae; details: Enterobacter cloacae, 3 h, 50 μM final drug concentration
[8] = planktonic E. faecium, cutoff for positive-scoring molecules 3-fold increase, read-out: AK-based Prestwick Library Screening Results, E. faecium (increase in extracellular AK activity)
[9] = planktonic E. coli, cutoff for positive-scoring molecules 3-fold increase, read-out: AK-based Prestwick Library Screening Results, E. coli (increase in extracellular AK activity)
[10] = planktonic S. aureus, cutoff for positive-scoring molecules 3-fold increase, read-out: AK-based Prestwick Library Screening Results, S. aureus (increase in extracellular AK activity)
[11] = planktonic K. pneumoniae, cutoff for positive-scoring molecules 3-fold increase, read-out: AK-based Prestwick Library Screening Results, K. pneumoniae (increase in extracellular AK activity)
[12] = planktonic A. baumannii, cutoff for positive-scoring molecules 3-fold increase, read-out: AK-based Prestwick Library Screening Results, A. baumannii (increase in extracellular AK activity)
[13] = planktonic P. aeruginosa, cutoff for positive-scoring molecules 3-fold increase, read-out: AK-based Prestwick Library Screening Results, P. aeruginosa (increase in extracellular AK activity)
[14] = planktonic E. cloacae, cutoff for positive-scoring molecules 3-fold increase, read-out: AK-based Prestwick Library Screening Results, E. cloacae (increase in extracellular AK activity)
[15] = planktonic E. faecium, 384-well, cutoff for positive-scoring molecules 3-fold increase, read-out: AK-based Prestwick Library Screening Results: E. faecium (increase in extracellular AK activity)
[16] = planktonic E. coli, 384-well, cutoff for positive-scoring molecules 3-fold increase, read-out: AK-based Prestwick Library Screening Results: E. coli (increase in extracellular AK activity)
[17] = planktonic S. aureus, 384-well, cutoff for positive-scoring molecules 3-fold increase, read-out: AK-based Prestwick Library Screening Results: S. aureus (increase in extracellular AK activity)
[18] = planktonic K. pneumoniae, 384-well, cutoff for positive-scoring molecules 3-fold increase, read-out: AK-based Prestwick Library Screening Results: K. pneumoniae (increase in extracellular AK activity)
[19] = planktonic A. baumannii, 384-well, cutoff for positive-scoring molecules 3-fold increase, read-out: AK-based Prestwick Library Screening Results: A. baumannii (increase in extracellular AK activity)
[20] = planktonic P. aeruginosa, 384-well, cutoff for positive-scoring molecules 3-fold increase, read-out: AK-based Prestwick Library Screening Results: P. aeruginosa (increase in extracellular AK activity)
[21] = planktonic E. cloacae, 384-well, cutoff for positive-scoring molecules 3-fold increase, read-out: AK-based Prestwick Library Screening Results: E. cloacae (increase in extracellular AK activity)
[22] = cutoff for positive-scoring molecules 3-fold increase, read-out: AK-based Prestwick Library Screening Results, E. faecium (fold increase in extracellular AK activity)
[23] = cutoff for positive-scoring molecules 3-fold increase, read-out: AK-based Prestwick Library Screening Results, E. coli (fold increase in extracellular AK activity)
[24] = cutoff for positive-scoring molecules 3-fold increase, read-out: AK-based Prestwick Library Screening Results, S. aureus (fold increase in extracellular AK activity)
[25] = cutoff for positive-scoring molecules 3-fold increase, read-out: AK-based Prestwick Library Screening Results, K. pneumoniae (fold increase in extracellular AK activity)
[26] = cutoff for positive-scoring molecules 3-fold increase, read-out: AK-based Prestwick Library Screening Results, A. baumannii (fold increase in extracellular AK activity)
[27] = cutoff for positive-scoring molecules 3-fold increase, read-out: AK-based Prestwick Library Screening Results, P. aeruginosa (fold increase in extracellular AK activity)
[28] = cutoff for positive-scoring molecules 3-fold increase, read-out: AK-based Prestwick Library Screening Results, E. cloacae (fold increase in extracellular AK activity)

CNCCCN1c2ccccc2CCc2ccccc21 [Desipramine hydrochloride]
fold induction at 50 µM [1, 8]: 0.8
fold induction at 50 µM [2, 9]: 0.9
fold induction at 50 µM [3, 10]: 0.7
fold induction at 50 µM [4, 11]: 0.7
fold induction at 50 µM [5, 12]: 0.7
fold induction at 50 µM [6, 13]: 0.9
fold induction at 50 µM [7, 14]: 0.8

CC(=O)OCC(=O)[C@@]1(O)[C@H](C)C[C@H]2[C@@H]3CCC4=CC(=O)C=C[C@]4(C)[C@@]3(F)[C@@H](O)C[C@@]21C [Dexamethasone acetate]
fold induction at 50 µM [1, 15]: 1.2
fold induction at 50 µM [2, 16]: 1.4
fold induction at 50 µM [3, 17]: 1.2
fold induction at 50 µM [4, 18]: 1.1
fold induction at 50 µM [5, 19]: 1.1
fold induction at 50 µM [6, 20]: 1
fold induction at 50 µM [7, 21]: 1.2

CC1=NS(=O)(=O)c2cc(Cl)ccc2N1 [Diazoxide]
fold induction at 50 µM ([1]; 384-well format, cutoff for positive-scoring molecules 3-fold increase, read-out: AK-based Prestwick Library Screening Results, E. faecium (increase in extracellular AK activity)): 0.9
fold induction at 50 µM ([2]; 384-well format, cutoff for positive-scoring molecules 3-fold increase, read-out: AK-based Prestwick Library Screening Results, E. coli (increase in extracellular AK activity)): 0.5
fold induction at 50 µM ([3]; 384-well format, cutoff for positive-scoring molecules 3-fold increase, read-out: AK-based Prestwick Library Screening Results, S. aureus (increase in extracellular AK activity)): 0.5
fold induction at 50 µM ([4]; 384-well format, cutoff for positive-scoring molecules 3-fold increase, read-out: AK-based Prestwick Library Screening Results, K. pneumoniae (increase in extracellular AK activity)): 0.4
fold induction at 50 µM ([5]; 384-well format, cutoff for positive-scoring molecules 3-fold increase, read-out: AK-based Prestwick Library Screening Results, A. baumannii (increase in extracellular AK activity)): 0.4
fold induction at 50 µM ([6]; 384-well format, cutoff for positive-scoring molecules 3-fold increase, read-out: AK-based Prestwick Library Screening Results, P. aeruginosa (increase in extracellular AK activity)): 0.4
fold induction at 50 µM ([7]; 384-well format, cutoff for positive-scoring molecules 3-fold increase, read-out: AK-based Prestwick Library Screening Results, E. cloacae (increase in extracellular AK activity)): 0.4

CCCCOc1cc(C(=O)NCCN(CC)CC)c2ccccc2n1 [Dibucaine]
fold induction at 50 µM [1, 15]: 0.9
fold induction at 50 µM [2, 16]: 1.3
fold induction at 50 µM [3, 17]: 1.3
fold induction at 50 µM [4, 18]: 1.1
fold induction at 50 µM [5, 19]: 1.3
fold induction at 50 µM [6, 20]: 1.1
fold induction at 50 µM [7, 21]: 1.7

NS(=O)(=O)c1cc(Cl)c(Cl)c(S(N)(=O)=O)c1 [Dichlorphenamide]
fold induction at 50 µM ([1]; planktonic, cutoff for positive-scoring molecules 3-fold increase, read-out: AK-based Prestwick Library Screening Results, E. faecium (fold increase in extracellular AK activity)): 1.1
fold induction at 50 µM ([2]; planktonic, cutoff for positive-scoring molecules 3-fold increase, read-out: AK-based Prestwick Library Screening Results, E. coli (fold increase in extracellular AK activity)): 0.6
fold induction at 50 µM ([3]; planktonic, cutoff for positive-scoring molecules 3-fold increase, read-out: AK-based Prestwick Library Screening Results, S. aureus (fold increase in extracellular AK activity)): 0.5
fold induction at 50 µM ([4]; planktonic, cutoff for positive-scoring molecules 3-fold increase, read-out: AK-based Prestwick Library Screening Results, K. pneumoniae (fold increase in extracellular AK activity)): 0.5
fold induction at 50 µM ([5]; planktonic, cutoff for positive-scoring molecules 3-fold increase, read-out: AK-based Prestwick Library Screening Results, A. baumannii (fold increase in extracellular AK activity)): 0.5
fold induction at 50 µM ([6]; planktonic, cutoff for positive-scoring molecules 3-fold increase, read-out: AK-based Prestwick Library Screening Results, P. aeruginosa (fold increase in extracellular AK activity)): 0.5
fold induction at 50 µM ([7]; planktonic, cutoff for positive-scoring molecules 3-fold increase, read-out: AK-based Prestwick Library Screening Results, E. cloacae (fold increase in extracellular AK activity)): 0.5

O=C(O)Cc1ccccc1Nc1c(Cl)cccc1Cl [Diclofenac sodium]
fold induction at 50 µM [1, 8]: 0.9
fold induction at 50 µM [2, 9]: 0.9
fold induction at 50 µM [3, 10]: 0.8
fold induction at 50 µM [4, 11]: 0.7
fold induction at 50 µM [5, 12]: 0.8
fold induction at 50 µM [6, 13]: 0.9
fold induction at 50 µM [7, 14]: 1.2

Cc1onc(-c2c(Cl)cccc2Cl)c1C(=O)N[C@@H]1C(=O)N2[C@@H]1SC(C)(C)[C@@H]2C(=O)O [Dicloxacillin sodium salt]
fold induction at 50 µM ([1]; planktonic, cutoff for positive 3-fold increase, read-out: AK-based Prestwick Library Screening Results, E. faecium (fold increase in extracellular AK activity)): 1
fold induction at 50 µM ([2]; planktonic, cutoff for positive 3-fold increase, read-out: AK-based Prestwick Library Screening Results, E. coli (fold increase in extracellular AK activity)): 1.2
fold induction at 50 µM ([3]; planktonic, cutoff for positive 3-fold increase, read-out: AK-based Prestwick Library Screening Results, S. aureus (fold increase in extracellular AK activity)): 7.1
fold induction at 50 µM ([4]; planktonic, cutoff for positive 3-fold increase, read-out: AK-based Prestwick Library Screening Results, K. pneumoniae (fold increase in extracellular AK activity)): 0.9
fold induction at 50 µM ([5]; planktonic, cutoff for positive 3-fold increase, read-out: AK-based Prestwick Library Screening Results, A. baumannii (fold increase in extracellular AK activity)): 1.5
fold induction at 50 µM ([6]; planktonic, cutoff for positive 3-fold increase, read-out: AK-based Prestwick Library Screening Results, P. aeruginosa (fold increase in extracellular AK activity)): 1.4
fold induction at 50 µM ([7]; planktonic, cutoff for positive 3-fold increase, read-out: AK-based Prestwick Library Screening Results, E. cloacae (fold increase in extracellular AK activity)): 1.2

O=c1oc2ccccc2c(O)c1Cc1c(O)c2ccccc2oc1=O [Dicumarol]
fold induction at 50 µM [1, 22]: 1.3
fold induction at 50 µM [2, 23]: 1.1
fold induction at 50 µM [3, 24]: 1.3
fold induction at 50 µM [4, 25]: 1.1
fold induction at 50 µM [5, 26]: 1.3
fold induction at 50 µM [6, 27]: 1.2
fold induction at 50 µM [7, 28]: 1.5

O=c1[nH]cnc2c1ncn2[C@H]1CC[C@@H](CO)O1 [Didanosine]
fold induction at 50 µM [1, 15]: 0.9
fold induction at 50 µM ([2]; planktonic E. coli, 384-well, […], read-out: AK-based Prestwick Library Screening Results: E. coli (increase in extracellular AK activity)): 4.7
fold induction at 50 µM [3, 17]: 1.2
fold induction at 50 µM [4, 18]: 0.9
fold induction at 50 µM [5, 19]: 1.5
fold induction at 50 µM [6, 20]: 1
fold induction at 50 µM [7, 21]: 4.2

C/C=C(/C(=C/C)c1ccc(O)cc1)c1ccc(O)cc1 [Dienestrol]
fold induction at 50 µM [1, 22]: 1.3
fold induction at 50 µM [2, 23]: 1.1
fold induction at 50 µM [3, 24]: 0.4
fold induction at 50 µM [4, 25]: 0.9
fold induction at 50 µM [5, 26]: 3.2
fold induction at 50 µM [6, 27]: 1.1
fold induction at 50 µM [7, 28]: 21.9

CCN(CC)C(=O)N1CCN(C)CC1 [Diethylcarbamazine citrate]
fold induction at 50 µM [1, 15]: 1.2
fold induction at 50 µM [2, 16]: 1.3
fold induction at 50 µM [3, 17]: 1.1
fold induction at 50 µM [4, 18]: 0.9
fold induction at 50 µM [5, 19]: 1.1
fold induction at 50 µM [6, 20]: 1.1
fold induction at 50 µM [7, 21]: 1.7
